Data published in ChEMBL document CHEMBL1201862, “PubChem BioAssay data set” (2004).
Calls of active or inactive are those of the source.

Assays:
[1] = non-specific 3'UTR reporter inhibition in Clone20-Shn3RL – cell-based, Renilla luciferase, cherry-picked, counter-screen for Shn3 inhibitor project, dose response (AID 624133); format: functional
[2] = loss of viability in HepG2 cells – cell-based, CellTiter-Glo, cherry-picked, cytotoxicity control for Shn3 inhibitor project, dose response (AID 624134); format: functional
[3] = reduction of Shn3 3'UTR-driven luciferase in osteoblasts – cell-based, Clone20 osteoblasts, firefly luciferase, cherry-picked, dose response (AID 624132); format: functional;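 also: firefly luciferase luminescence from reporter carrying the Shn3 3'UTR in osteoblasts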
[4] = test system: HEK293; test: EBV LMP1 TES2 canonical NF-kB signalling blockers – cell-based, HEK293, luciferase, cherry-pick, dose response (AID 588343); format: functional; conditions: Homo sapiens
[5] = test system: Vero; test: cells; format: functional; conditions: Chlorocebus sabaeus
[6] = NIH-3T3 fibroblast cytotoxicity, dose response, cytotoxicity control, cell-based, fluorescence, Alamar Blue, secondary assay (AID 2327); format: functional;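 also: NIH-3T3 mouse fibroblasts cultured with fluconazole at 8 µg/mL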
[7] = fluconazole-exposed Candida albicans growth modulators – fluorescence, retest, confirmation (AID 2467); format: functional, cell-based
[8] = target: T1, Latent membrane protein 1 (Human herpesvirus 4 (strain B95-8), UniProt P03230); test: LMP1 TES1 pathway selectivity over dsRED control – imaging, HEK293T, dual-color eGFP/dsRED, cherry-picks, selectivity assay for LMP1 NF-kB inhibitor project, dose response (AID 588398); format: functional, cell-based
T1 sequence (P03230 whole entry): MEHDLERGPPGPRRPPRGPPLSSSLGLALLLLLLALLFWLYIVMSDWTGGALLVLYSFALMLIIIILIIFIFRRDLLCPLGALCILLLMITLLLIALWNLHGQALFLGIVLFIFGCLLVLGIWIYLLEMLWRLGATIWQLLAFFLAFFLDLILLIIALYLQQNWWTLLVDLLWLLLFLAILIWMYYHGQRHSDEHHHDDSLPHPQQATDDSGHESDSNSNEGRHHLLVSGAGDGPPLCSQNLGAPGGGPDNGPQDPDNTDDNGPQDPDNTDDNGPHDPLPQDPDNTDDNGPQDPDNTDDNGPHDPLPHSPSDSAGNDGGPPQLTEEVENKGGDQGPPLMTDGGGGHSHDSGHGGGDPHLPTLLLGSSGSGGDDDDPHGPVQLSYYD

[9] = target: T2, Rac GTPase-activating protein 1 (Homo sapiens, UniProt Q9H0H5); test: blockers of MgcRacGAP-driven Rac1 GTP hydrolysis – biochemical, ADP Hunter fluorescence, primary and confirmatory, confirmation (AID 624330); format: functional
T2 sequence (Q9H0H5 whole entry): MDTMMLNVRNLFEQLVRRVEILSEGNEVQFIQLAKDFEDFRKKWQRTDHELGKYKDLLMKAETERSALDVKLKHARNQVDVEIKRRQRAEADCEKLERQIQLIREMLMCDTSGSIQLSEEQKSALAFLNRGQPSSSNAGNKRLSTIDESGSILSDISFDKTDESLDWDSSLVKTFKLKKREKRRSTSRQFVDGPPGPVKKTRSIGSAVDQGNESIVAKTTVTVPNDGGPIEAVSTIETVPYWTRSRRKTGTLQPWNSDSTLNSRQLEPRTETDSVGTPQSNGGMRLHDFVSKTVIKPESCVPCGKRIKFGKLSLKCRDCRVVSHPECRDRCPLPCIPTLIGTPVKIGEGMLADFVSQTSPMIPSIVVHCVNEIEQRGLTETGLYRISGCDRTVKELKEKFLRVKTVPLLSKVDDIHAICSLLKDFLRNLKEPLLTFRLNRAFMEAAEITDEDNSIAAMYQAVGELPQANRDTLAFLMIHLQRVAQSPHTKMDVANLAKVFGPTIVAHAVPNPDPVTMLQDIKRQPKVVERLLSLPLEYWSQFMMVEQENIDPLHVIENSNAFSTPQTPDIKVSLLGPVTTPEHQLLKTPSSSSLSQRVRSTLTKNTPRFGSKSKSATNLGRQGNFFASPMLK

[10] = target: T3, Sentrin-specific protease 1 (Homo sapiens, UniProt Q9P0U3); test: SENP1 catalytic domain blockers, concentration series – biochemical, kinetic FRET, dose response (AID 651697); format: functional; conditions: read-out: IC50_Mean
T3 sequence (Q9P0U3 whole entry): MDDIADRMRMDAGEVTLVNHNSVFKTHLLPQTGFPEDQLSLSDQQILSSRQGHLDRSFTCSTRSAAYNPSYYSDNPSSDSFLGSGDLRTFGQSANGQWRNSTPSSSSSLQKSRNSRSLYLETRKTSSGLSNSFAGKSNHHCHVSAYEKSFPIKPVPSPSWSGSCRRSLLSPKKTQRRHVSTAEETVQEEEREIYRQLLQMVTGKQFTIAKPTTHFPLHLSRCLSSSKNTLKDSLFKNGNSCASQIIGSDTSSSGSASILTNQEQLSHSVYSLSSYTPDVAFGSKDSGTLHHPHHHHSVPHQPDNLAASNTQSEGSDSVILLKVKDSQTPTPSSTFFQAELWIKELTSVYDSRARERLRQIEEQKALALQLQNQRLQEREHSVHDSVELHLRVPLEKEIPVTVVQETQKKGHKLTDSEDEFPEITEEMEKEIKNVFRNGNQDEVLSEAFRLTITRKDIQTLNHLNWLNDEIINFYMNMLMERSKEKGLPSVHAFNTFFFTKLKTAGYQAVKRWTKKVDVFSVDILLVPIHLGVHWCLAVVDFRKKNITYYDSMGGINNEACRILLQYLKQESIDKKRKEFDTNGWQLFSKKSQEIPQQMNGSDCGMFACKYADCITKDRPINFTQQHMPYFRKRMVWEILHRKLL

[11] = target: Prothrombin (Bos taurus, UniProt P00735); test: thrombin protease inhibitors – biochemical, fluorescence polarization, uHTS hits, dose response (AID 602369); format: functional
[12] = target: 72 kDa type IV collagenase (Homo sapiens, UniProt P08253); test: Dose Response validation of uHTS RPN11 inhibitor hits using a MMP-2 Fluorescence assay.; format: functional
[13] = target: T3, Sentrin-specific protease 1; test: Dose response confirmation of small molecule inhibitors of the catalytic domain of the SUMO protease, SENP1 in a FRET assay.; format: functional; conditions: read-out: IC50_Mean
[14] = target: 26S proteasome non-ATPase regulatory subunit 14 (Homo sapiens, UniProt O00487); test: inhibition of proteasome subunit RPN11 – biochemical, fluorescence polarization, uHTS hits, confirmation (AID 602368); format: functional
[15] = Luminescence Cell-Based Dose Response HTS to Identify Activators of Luciferase Translation or Activity in H4 […] Cells. [Related pubchem assays: 1829 (Project Summary), 1814 (Primary HTS)]; format: functional
[16] = test system: H4; test: Luminescence Cell-Based Dose Response HTS to Identify Activators of 5'UTR Stem-Loop Driven Prion Protein mRNA Translation in H4 Neuroglioblastoma Cells. [Related pubchem assays: 1829 (Project Summary), 1814 (Primary HTS)]; format: functional; conditions: Homo sapiens
[17] = target: T4, Endoribonuclease toxin MazF (Escherichia coli K-12, UniProt P0AE70); test: activation of MazEF endoribonuclease cleavage – biochemical, fluorescence, single-stranded RNA substrate, uHTS hits, dose response (AID 588481); format: functional
T4 sequence (P0AE70 whole entry): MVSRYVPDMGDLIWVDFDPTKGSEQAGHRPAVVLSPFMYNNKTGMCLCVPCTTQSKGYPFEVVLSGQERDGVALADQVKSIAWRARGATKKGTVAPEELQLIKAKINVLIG

[18] = target: T4, Endoribonuclease toxin MazF; test: substrate-only fluorescence increase artefacts – biochemical, single-stranded RNase substrate, counter-screen for MazEF activator project, dose response (AID 588502); format: functional
[19] = Luminescence Cell-Based Dose Confirmation HTS to Identify Activators of 5'UTR Stem-Loop Driven Alpha-Synuclein mRNA Translation in H4 Neuroglioblastoma Cells. [Related pubchem assays: 1829 (Project Summary), 1814 (Primary HTS)]; format: functional
[20] = target: Ras and Rab interactor 1/Tyrosine-protein kinase ABL1 (Homo sapiens, UniProt P00519+Q13671); format: functional;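 also: biochemical TR-FRET dose-response test measuring inhibition of binding between Rin1 and Abl proteins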
Sequence of Ras and Rab interactor 1/Tyrosine-protein kinase ABL1 (P00519 whole entry): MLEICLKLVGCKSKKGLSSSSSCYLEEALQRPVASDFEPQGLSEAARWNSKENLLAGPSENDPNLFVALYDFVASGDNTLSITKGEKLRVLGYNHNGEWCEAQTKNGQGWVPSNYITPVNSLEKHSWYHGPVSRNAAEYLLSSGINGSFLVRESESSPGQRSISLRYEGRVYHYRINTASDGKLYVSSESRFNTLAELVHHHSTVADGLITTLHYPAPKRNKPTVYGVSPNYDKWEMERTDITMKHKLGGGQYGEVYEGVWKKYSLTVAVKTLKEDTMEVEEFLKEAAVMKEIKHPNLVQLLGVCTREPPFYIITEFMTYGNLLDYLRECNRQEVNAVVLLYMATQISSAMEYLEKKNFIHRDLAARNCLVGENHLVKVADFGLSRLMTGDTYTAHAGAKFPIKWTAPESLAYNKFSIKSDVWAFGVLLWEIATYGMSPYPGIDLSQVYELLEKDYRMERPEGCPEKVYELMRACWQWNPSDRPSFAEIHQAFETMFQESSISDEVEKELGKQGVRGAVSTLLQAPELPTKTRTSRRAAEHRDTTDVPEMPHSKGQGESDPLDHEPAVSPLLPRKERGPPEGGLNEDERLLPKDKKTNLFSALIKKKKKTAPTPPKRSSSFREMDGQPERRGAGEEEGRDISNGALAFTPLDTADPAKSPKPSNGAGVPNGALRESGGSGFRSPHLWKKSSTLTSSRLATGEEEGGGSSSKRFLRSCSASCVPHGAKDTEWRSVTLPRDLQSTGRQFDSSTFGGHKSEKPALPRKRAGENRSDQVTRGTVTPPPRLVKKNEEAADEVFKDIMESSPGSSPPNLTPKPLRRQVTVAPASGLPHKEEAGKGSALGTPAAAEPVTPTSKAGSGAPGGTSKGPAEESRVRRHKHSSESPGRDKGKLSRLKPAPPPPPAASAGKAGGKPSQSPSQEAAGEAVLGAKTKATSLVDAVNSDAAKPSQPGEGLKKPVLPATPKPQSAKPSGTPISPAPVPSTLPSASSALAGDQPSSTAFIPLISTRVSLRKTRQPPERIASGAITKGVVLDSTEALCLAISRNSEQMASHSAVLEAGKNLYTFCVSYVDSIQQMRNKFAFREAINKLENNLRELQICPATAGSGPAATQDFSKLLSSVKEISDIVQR
Sequence of Ras and Rab interactor 1/Tyrosine-protein kinase ABL1 (Q13671 whole entry): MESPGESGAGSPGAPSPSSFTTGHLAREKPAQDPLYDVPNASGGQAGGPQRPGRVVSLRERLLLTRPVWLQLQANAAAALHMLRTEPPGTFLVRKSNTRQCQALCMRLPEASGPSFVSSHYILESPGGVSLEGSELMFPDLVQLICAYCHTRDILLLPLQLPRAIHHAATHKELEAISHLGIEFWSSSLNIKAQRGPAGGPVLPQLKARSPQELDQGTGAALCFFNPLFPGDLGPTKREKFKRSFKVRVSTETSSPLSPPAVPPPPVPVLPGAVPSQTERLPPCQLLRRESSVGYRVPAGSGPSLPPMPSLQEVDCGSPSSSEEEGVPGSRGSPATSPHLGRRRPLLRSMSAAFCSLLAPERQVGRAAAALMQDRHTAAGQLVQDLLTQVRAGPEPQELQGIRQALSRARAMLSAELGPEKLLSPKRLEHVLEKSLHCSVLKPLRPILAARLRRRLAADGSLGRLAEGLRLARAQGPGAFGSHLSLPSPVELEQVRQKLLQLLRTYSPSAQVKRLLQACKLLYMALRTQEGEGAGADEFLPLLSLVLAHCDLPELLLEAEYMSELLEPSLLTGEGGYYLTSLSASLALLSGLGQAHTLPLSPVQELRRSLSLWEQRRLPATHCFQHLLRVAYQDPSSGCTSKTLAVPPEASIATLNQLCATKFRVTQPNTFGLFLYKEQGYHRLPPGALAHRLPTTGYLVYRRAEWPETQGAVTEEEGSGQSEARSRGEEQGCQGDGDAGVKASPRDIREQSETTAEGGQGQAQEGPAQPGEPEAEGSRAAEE

Sequence of 72 kDa type IV collagenase (P08253 whole entry, the tested form may be a part): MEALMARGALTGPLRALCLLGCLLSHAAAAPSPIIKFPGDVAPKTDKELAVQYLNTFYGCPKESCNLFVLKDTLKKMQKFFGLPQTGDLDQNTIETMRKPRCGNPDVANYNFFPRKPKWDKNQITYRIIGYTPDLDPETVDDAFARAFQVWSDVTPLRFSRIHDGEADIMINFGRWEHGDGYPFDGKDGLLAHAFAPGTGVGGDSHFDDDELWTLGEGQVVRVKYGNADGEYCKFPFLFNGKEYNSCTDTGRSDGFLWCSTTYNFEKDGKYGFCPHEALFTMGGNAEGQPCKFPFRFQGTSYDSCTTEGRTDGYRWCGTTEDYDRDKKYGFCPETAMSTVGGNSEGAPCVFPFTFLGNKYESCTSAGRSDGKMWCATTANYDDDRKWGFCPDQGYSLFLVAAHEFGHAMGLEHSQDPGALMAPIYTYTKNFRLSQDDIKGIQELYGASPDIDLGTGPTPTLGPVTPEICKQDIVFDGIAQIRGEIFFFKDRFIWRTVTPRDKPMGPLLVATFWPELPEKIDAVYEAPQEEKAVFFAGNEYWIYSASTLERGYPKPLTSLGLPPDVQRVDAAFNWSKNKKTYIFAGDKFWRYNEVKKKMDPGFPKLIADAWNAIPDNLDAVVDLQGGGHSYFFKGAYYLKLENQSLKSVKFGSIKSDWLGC
Sequence of 26S proteasome non-ATPase regulatory subunit 14 (O00487 whole entry): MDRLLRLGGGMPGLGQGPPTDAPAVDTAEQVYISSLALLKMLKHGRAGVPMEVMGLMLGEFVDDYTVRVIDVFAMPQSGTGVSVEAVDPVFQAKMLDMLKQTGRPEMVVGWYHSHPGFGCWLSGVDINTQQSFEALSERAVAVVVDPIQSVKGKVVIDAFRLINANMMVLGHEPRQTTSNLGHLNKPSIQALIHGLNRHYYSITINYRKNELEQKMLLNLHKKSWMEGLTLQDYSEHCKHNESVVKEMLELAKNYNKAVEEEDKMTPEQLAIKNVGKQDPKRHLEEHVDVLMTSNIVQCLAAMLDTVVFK

COc1ccc(C(=O)NC(=S)NNC(=O)c2ccc3ccccc3n2)cc1
AC50 [1]: 1.37 µM (active) | AC50 [2]: 41.5 µM (active) | AC50 [3]: 4.32 µM (active) | AC50 [4]: 13.6 µM (active) | CC50 [5]: 10.1 µM (active) | EC50 [6]: 28.4 µM (active) | EC50 [7]: 3.06 µM (active) | AC50 [8]: 26.8 µM (active)

CCOC(=O)C1CCCN(C2=NC(=O)/C(=C/c3ccc(O)c(OC)c3)S2)C1 (stereo not given)
IC50 [9]: 19.6 µM (active) | IC50 [10]: 2.97 µM (active) | IC50 [11]: 40.6 µM (active) | IC50 [12]: > 100 µM (inactive) | IC50 [13]: 2.49 µM (active) | IC50 [14]: 26.3 µM (active)

COc1cc(/C=C2/C(=O)N(C)C(=S)N2C)ccc1OCc1cccc(F)c1
EC50 [15]: > 120 µM (not active) | EC50 [16]: 4.24 µM (active) | EC50 [17]: > 99 µM (inactive) | EC50 [18]: > 99 µM (inactive) | EC50 [19]: > 120 µM (not active)

CCOC(=O)CCCCC(=O)c1[nH]c(O)nc1C[n+]1ccc(C)cc1
IC50 [20]: 5.77 µM (active)
